Reference: publication PMC9220178, “Preclinical Characterization of Antioxidant Quinolyl Nitrone QN23 as a New Candidate for the Treatment of Ischemic Stroke” (Antioxidants, 2022)
Read-outs that look alike come from different tables or passages of the source.

Tests used:
[1] = Toxicokinetics study, plasma concentration by LC-MS/MS after single i.v. bolus; assay type: in vivo, rat; conditions: for Clast / Cmax / AUC(0-t) / C0 / clearance / Vd / k el / half-life: female Sprague Dawley rats, plasma, mean ± SE, n = 6; for Cmax / AUC(0-t) / C0 / clearance / Vd / k el / half-life: rat, iv; for AUC(0-t): read-out: AUC0–8h; for C0: read-out: C0 (initial concentration); for clearance: read-out: Cl (clearance) (converted); for Vd: read-out: Vd (volume of distribution); for k el: read-out: kel (elimination constant) (converted); for half-life: read-out: t1/2 (half-life) (converted)
Description: For the toxicokinetics study of QN23, female Sprague Dawley rats (9–10 weeks, Envigo, Barcelona, Spain) were divided into three groups (n = 6 per group) and treated intravenously with different concentrations of QN23 (2.0, 6.0, and 18 mg/kg), in vehicle solution (ethanol/polyethylene glycol 400/saline, 1:200:60 v/v), as a single bolus of 1 mL injection at 3 mL/min. Samples of plasma were taken at 0.25, 0.5, 1, 2, 4, and 8 h after the first administration (on day 1) and QN23 concentration was determined by liquid chromatography–mass spectrometry in tandem (LC-MS/MS) analysis for pharmacokinetic study. For the determination of the toxicokinetic parameters, a noncompartmental analysis was performed using the Phoenix 64 WinNonlin software (version 8.0, Certara, Sant Louis, MO, USA). This study was carried out by Swiss BioQuant AG (Reinach, Switzerland). For the toxicity study of QN23, rats were divided into four groups (n = 5 per group) and treated intravenously with vehicle (control group) or different concentrations of QN23 (2.0, 6.0, and 18 mg/kg) as a single bolus injection in a 4-day repeated dose as described above. Pathology analyses, comprising hematology, clinical biochemistry, and coagulation, were performed, and heart, kidney, liver, and spleen necropsies were collected for macroscopic analysis. This study was carried out by Vivotecnia Research S.L (Madrid, Spain).

[2] = tested on: adult male Wistar rats, four-vessel occlusion (4VO) transient forebrain ischemia; assay: Long-term behavioral tests in the Y maze; assay type: in vivo, rat; conditions: 2.0 mg/kg i.v. at reperfusion onset, 11 weeks after ischemia
Description: Long-term assessment of neurological damage after the ischemic episode was performed by the evaluation of the spontaneous exploratory activity (spatial recognition) and spatial memory skills in the Y maze.
For the assessment of the exploratory activity and spatial recognition, control animals and ischemic animals treated with vehicle, QN23, or NXY-059 were placed in the center of the maze and allowed free exploration for 8 min. An independent researcher blind to the treatment allocation registered the total number of arms that the animal entered indistinctly (arm entries), and the times that the animal explored the three different arms of the maze consecutively (alternations or triads).
For the assessment of spatial memory, experiments consisted of two trials. For the first trial (training), control and ischemic animals treated with vehicle or QN23 were placed into one of the arms (start arm) and allowed to explore the Y maze for 10 min with one of the arms closed. One hour after the training trial, the animals were returned to the Y maze and the second trial was conducted. The animals were placed in the same start arm as in the training trial, but now with the remaining two arms of the maze available for exploration for 3 min. A researcher blind to the treatment allocation registered the first choice of arm for entry (novel or old).

COc1ccc2nc(Cl)c(/C=[N+](\[O-])C(C)(C)C)cc2c1 [QN23, (Z)-N-tert-Butyl-1-(2-chloro-6-methoxyquinolin-3-yl)methanimine Oxide]
Clast ([1]; 2.0 mg/kg single i.v. bolus): 30 ± 8 ng/mL | Latest time after injection with quantifiable plasma concentration ([1]; 6 mg/kg single i.v. bolus): ≤ 4 h | Clast ([1]; 6.0 mg/kg single i.v. bolus): 34 ± 5 ng/mL | Last concentration found as share of the initial (and maximal) detected concentration ([1]; 18 mg/kg single i.v. bolus): approximately 1% | Clast ([1]; 18 mg/kg single i.v. bolus): 49 ± 5 ng/mL | AUC0–8h versus dose ([1]; 2.0, 6.0 and 18 mg/kg single i.v. bolus): increased proportional to the dose administered | Cmax ([1]; 2.0 mg/kg single i.v. bolus): 161 ± 86 ng/mL | AUC(0-t) ([1]; 2.0 mg/kg single i.v. bolus): 160 ± 61 ng·h/mL | C0 ([1]; 2.0 mg/kg single i.v. bolus): 540 ± 186 ng/mL | Cmax ([1]; 6.0 mg/kg single i.v. bolus): 1090 ± 371 ng/mL | AUC(0-t) ([1]; 6.0 mg/kg single i.v. bolus): 1010 ± 355 ng·h/mL | C0 ([1]; 6.0 mg/kg single i.v. bolus): 2170 ± 661 ng/mL | Cmax ([1]; 18 mg/kg single i.v. bolus): 2570 ± 1200 ng/mL | AUC(0-t) ([1]; 18 mg/kg single i.v. bolus): 2960 ± 1290 ng·h/mL | C0 ([1]; 18 mg/kg single i.v. bolus): 4350 ± 1860 ng/mL | clearance ([1]; 2.0 mg/kg single i.v. bolus): 73.3 mL/min | Vd ([1]; 2.0 mg/kg single i.v. bolus): 1.26 ± 0.434 L | k el ([1]; 2.0 mg/kg single i.v. bolus): 0.00118 s⁻¹ | half-life ([1]; 2.0 mg/kg single i.v. bolus): 9.6 ± 0.6 min | clearance ([1]; 6.0 mg/kg single i.v. bolus): 56.7 mL/min | Vd ([1]; 6.0 mg/kg single i.v. bolus): 1.66 ± 0.584 L | k el ([1]; 6.0 mg/kg single i.v. bolus): 0.000931 s⁻¹ | half-life ([1]; 6.0 mg/kg single i.v. bolus): 14.4 ± 1.8 min | clearance ([1]; 18 mg/kg single i.v. bolus): 78.1 mL/min | Vd ([1]; 18 mg/kg single i.v. bolus): 20.4 ± 12.3 L | k el ([1]; 18 mg/kg single i.v. bolus): 0.000347 s⁻¹ | half-life ([1]; 18 mg/kg single i.v. bolus): 67.8 ± 23.4 min | Y maze arm entries (exploratory activity) [2]: higher number of new entries | Y maze alternations (triads completed), spatial recognition ([2]; vehicle 5.0, control 15.75): 7.8 | Percentage of animals exploring the novel arm as a first choice (spatial memory) ([2]; vehicle 17%, control 75%): 67%
